Test results reported in the supplement of paper PMC11061612.

Assays:
[1] = test system: MDA-MB-175-VII (Breast Carcinoma); assay: combination Emax (second highest fraction inhibited in the dose matrix, 72 h); higher = more inhibition; extreme values may be limits of the assay
In short: (§1)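 Bliss excess equals the observed combination effect minus the expected value EA + EB − EA·EB, where EA and EB are the effects of each agent alone. Combination Emax is the second-highest inhibition within the matrix. Inhibition was scaled from CellTiter-Glo 2.0 luminescence, with 0 set by vehicle wells and 1 by blank wells, after 72 hours of two-drug dosing of cells plated in 1536-well plates.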

[2] = test system: NCI-H1048 (Small Cell Lung Carcinoma); assay: as above
In short: as §1

[3] = test system: SCC90 (Head and Neck Carcinoma); assay: as above
In short: as §1

[4] = test system: SK-N-DZ (Neuroblastoma); assay: as above
In short: as §1

[5] = test system: BT-474 (Breast Carcinoma); assay: as above
In short: as §1

[6] = test system: NCI-H1648 (Lung Adenocarcinoma); assay: as above
In short: as §1

[7] = test system: HT-144 (Melanoma); assay: as above
In short: as §1

[8] = test system: GCIY (Gastric Carcinoma); assay: as above
In short: as §1

[9] = test system: TOV-21G (Ovarian Carcinoma); assay: as above
In short: as §1

[10] = test system: NCI-H2023 (Non-Small Cell Lung Carcinoma); assay: as above
In short: as §1

[11] = test system: NCI-H2170 (Squamous Cell Lung Carcinoma); assay: as above
In short: as §1

[12] = test system: L-363 (Plasma Cell Myeloma); assay: as above
In short: as §1

[13] = test system: Daudi (Burkitt's Lymphoma); assay: Bliss excess, mean over the matrix (fraction); higher = more synergy
In short: as §1

[14] = test system: JJN-3 (Plasma Cell Myeloma); assay: as above
In short: as §1

[15] = test system: RPMI-8402 (T-Lymphoblastic Leukemia); assay: as above
In short: as §1

[16] = test system: NCI-H1048 (Small Cell Lung Carcinoma); assay: as above
In short: as §1

[17] = test system: SCC90 (Head and Neck Carcinoma); assay: as above
In short: as §1

[18] = test system: A375 (Melanoma); assay: as above
In short: as §1

[19] = test system: SK-N-DZ (Neuroblastoma); assay: as above
In short: as §1

[20] = test system: GRANTA-519 (B-Cell Non-Hodgkin's Lymphoma); assay: as above
In short: as §1

Row | Structure (SMILES) | combination Emax [1] | combination Emax [2] | combination Emax [3] | combination Emax [4] | combination Emax [5] | combination Emax [6] | combination Emax [7] | combination Emax [8] | combination Emax [9] | combination Emax [10] | combination Emax [11] | combination Emax [12] | Bliss excess [13] | Bliss excess [14] | Bliss excess [15] | Bliss excess [16] | Bliss excess [17] | Bliss excess [18] | Bliss excess [19] | Bliss excess [20]
1 | CC1(C)CCC(CN2CCN(c3ccc(C(=O)NS(=O)(=O)c4ccc(NCC5CCOCC5)c([N+](=O)[O-])c4)c(Oc4cnc5[nH]ccc5c4)c3)CC2)=C(c2ccc(Cl)cc2)C1 [Venetoclax] + C[C@@H]1COCCN1C2=NC(=NC(=C2)C3(CC3)[S@](=N)(=O)C)C4=C5C=CNC5=NC=C4 [AZD6738] (first compound max 1 µM, 7x7, partner max 10 µM) | 0.251 | 0.7 | 0.373 | 0.946 | 0.206 | 0.668 | 0.718 | 0.879 | 0.785 | 0.729 | 0.691 | 0.897 | -0.0278 | 0.067 | 0.0103 | 0.0276 | -0.014 | -0.0308 | -0.0396 | 0.0342
2 | Cc1c2c(nn1C)CSCc1cc(n(C)n1)CSc1cc(c3ccccc3c1)OCCCc1c(C(=O)O)n(C)c3c-2c(Cl)ccc13 [AZD5991] + CN(C)CCCOc1ccc(-c2ccc3ncc4c(c3c2)n(C2CCOCC2)c(=O)n4C)cn1 [AZD0156] (first compound max 1 µM, 7x7, partner max 1 µM) | 0.209 | 0.984 | 0.904 | 0.265 | 0.306 | 0.701 | 0.87 | 0.465 | 0.161 | 0.426 | 0.317 | 1 | 0.0362 | -0.0028 | -0.0536 | 0.0136 | 0.0172 | 0.0053 | 0.0063 | -0.0017
3 | CN(CCO)CC[C@H](CSc1ccccc1)Nc1ccc(S(=O)(=O)NC(=O)c2ccc(N3CCC([C@@H](O)c4ccccc4-c4ccc(Cl)cc4)CC3)cc2)cc1S(=O)(=O)C(F)(F)F [AZD4320] + Cn1cnc2c(F)c(Nc3ccc(Br)cc3Cl)c(C(=O)NOCCO)cc21 [Selumetinib] (first compound max 1 µM, 7x7, partner max 3 µM) | 0.598 | 0.992 | 0.881 | 0.827 | 0.282 | 0.83 | 0.834 | 0.658 | 0.503 | 0.268 | 0.676 | 0.212 | 0.0037 | – | -0.0351 | 0.0198 | 0.144 | -0.0112 | -0.0273 | 0.0155
4 | CC(=O)c1c(C)c2cnc(Nc3ccc(N4CCNCC4)cn3)nc2n(C2CCCC2)c1=O [Palbociclib] + CN(CC[C@H](CSC1=CC=CC=C1)NC2=C(C=C(C=C2)S(=O)(=O)NC(=O)C3=CC=C(C=C3)N4CCC(CC4)[C@H](C5=CC=CC=C5C6=CC=C(C=C6)Cl)O)S(=O)(=O)C(F)(F)F)CCO [AZD4320] (first compound max 10 µM, 7x7, partner max 1 µM) | – | 0.677 | 0.862 | 0.992 | 0.124 | – | 0.753 | – | 0.626 | – | 0.8 | – | 0.0218 | -0.014 | – | 0.019 | -0.0407 | -0.0569 | 0.0814 | 0.0102
5 | C=CCn1c(=O)c2cnc(Nc3ccc(N4CCN(C)CC4)cc3)nc2n1-c1cccc(C(C)(C)O)n1 [AZD1775] + C[C@@H]1COCCN1C2=NC(=NC(=C2)C3(CC3)[S@](=N)(=O)C)C4=C5C=CNC5=NC=C4 [AZD6738] (first compound max 1 µM, partner max 10 µM) | 0.405 | 0.886 | 0.927 | 1 | 0.316 | 0.833 | 0.777 | 0.947 | 0.71 | 0.885 | – | 0.977 | 0.0329 | 0.0559 | 0.0379 | 0.0582 | 0.0167 | 0.0154 | 0.0094 | 0.0068
6 | Cc1c2c(nn1C)CSCc1cc(n(C)n1)CSc1cc(c3ccccc3c1)OCCCc1c(C(=O)O)n(C)c3c-2c(Cl)ccc13 [AZD5991] + Cn1cnc2c(F)c(Nc3ccc(Br)cc3Cl)c(C(=O)NOCCO)cc21 [Selumetinib] (first compound max 1 µM, 7x7, partner max 3 µM) | – | 0.971 | 0.99 | 0.252 | 0.246 | 0.844 | 1 | 0.465 | 0.335 | 0.294 | 0.184 | 1 | 0.0545 | 0.0114 | 0.0125 | -0.0224 | 0.0581 | 0.0086 | 0.018 | -0.0162
7 | COc1nnc2ccc(N3CCC(c4ccc(OCCN5CCN(C)C(=O)[C@H]5C)cc4)CC3)nn12 [AZD5153] + CN(CC[C@H](CSC1=CC=CC=C1)NC2=C(C=C(C=C2)S(=O)(=O)NC(=O)C3=CC=C(C=C3)N4CCC(CC4)[C@H](C5=CC=CC=C5C6=CC=C(C=C6)Cl)O)S(=O)(=O)C(F)(F)F)CCO [AZD4320] (first compound max 1 µM, 7x7, partner max 1 µM) | – | 0.801 | 0.588 | 0.922 | 0.531 | – | 0.454 | – | 0.807 | – | 0.838 | – | 0.0159 | -0.0443 | – | 0.0831 | 0.021 | 0.0183 | -0.0212 | 0.0352
